Data from paper PMC8698721, “Exploration of the Structure–Function Relationships of a Novel Frog Skin Secretion-Derived Bioactive Peptide, t-DPH1, through Use of Rational Design, Cationicity Enhancement and In Vitro Studies” (Antibiotics, 2021).
≈ marks a conversion by molar mass, not a printed value. Where a SMILES comes first, the peptide text is derived from it.

Columns and labels:
[1] = tested on: S. aureus (ATCC 6538); type: cell-based, Staphylococcus aureus; details: ATCC 6538, 24 h
Method: (§1) To assess the antimicrobial activity of t-DPH1 and its designed analogues, MIC and MBC assays were conducted. Seven microorganism strains were used in the assay: Gram-positive bacteria S. aureus (ATCC 6538), E. faecalis (NCTC 12697) and MRSA (NCTC 12493); Gram-negative bacteria E. coli (ATCC 8739), P. aeruginosa (ATCC 9027) and K. pneumoniae (ATCC 43816); yeast, C. albicans (ATCC 10231).
(§2) For MIC assay, the microorganisms were initially incubated in Mueller-Hinton broth (MHB) (for bacteria) or yeast extract peptone dextrose broth (YPD-B) (for yeast) overnight and sub-cultured to achieve their respective logarithmic growth phases (5 × 10^5 CFU/mL). Then, 99 μL of each microorganism and 1 μL of the tested peptide solution were incubated in a 96-well plate. The final on-plate peptide concentrations were from 1 to 512 μM. Except for the peptide group, four other groups were set when conducting this experiment, including a negative control group (PBS), a vehicle control group (1% DMSO), a positive control group (bacteria: 20 μg/mL norfloxacin; yeast: amphotericin B) and a blank control group (MHB or YPD-B with no microorganism culture). Thus, the MIC value represents the lowest concentration of peptides at which no visible growth of the microorganism after 24 h incubation. For the MBC assay, 10 μL of the medium from each clear well was inoculated onto a Mueller–Hinton agar (MHA) (for bacteria) or yeast extract peptone dextrose agar (YPD-A) (for yeast) plate and incubated for 24 h for measurement MBC values.

[2] = tested on: NCI-H838 (human non-small cell lung cancer); type: cell-based; details: 24 h
Method: (§3) The MTT assay was conducted to verify the proliferation inhibitory effect of t-DPH1 and its analogues. Human cancer cell lines (NCI-H838 (ATCC® CRL-5844, human non-small cell lung cancer)), (NCI-H157(ATCC® CRL-5802, human non-small cell lung cancer cell line)), (U251MG (ECACC 09063001, human neuronal glioblastoma cancer cell line)), (PC-3 (ATCC® CRL-1435TM, human prostate carcinoma cancer cell line)) and normal human cell lines (HMEC-1(ATCC®-CRL-3243, human microvascular endothelial cell line)) and (HaCaT (ATCC®-PCS-200-011, human keratinocyte cell)) were purchased from the American Type Culture Collection (ATCC, Manassas, VA, USA) and the European Collection of Cell Cultures (ECACC, Sallisbury, UK) for this assay. For the MTT assay, 8000 cells/per well were seeded in the 96-well plate for 24 h. Subsequently, experiment groups were dosed with fresh serum-free medium containing different concentrations of peptides (100 μM to 10 nM) in 3 replicates. Negative control groups and positive control groups were dosed with the fresh serum-free medium containing equal amounts of PBS, and 0.1% (w/v) Triton X-100, respectively. Then the 96-well plate was incubated at 37 °C with 5% CO2 for 24 h. After, ten microliters of MTT solution (5 mg/mL) (Sigma-Aldrich UK Ltd., Gillingham, UK) were added to each well and incubated in a dark environment for two hours. Then, the solution in each well was removed and 100 μL of DMSO were added and then the plate was shaken for 10 min on a shaking incubator before detecting the OD value by use of a Synergy HT plate reader (BioTek, Minneapolis, MN, USA) at λ = 570 nm.

[3] = tested on: HMEC-1 (human microvascular endothelial cell line); type: cell-based; details: 24 h
Method: as §3

[4] = tested on: HaCaT (human keratinocyte cell); type: cell-based; details: 24 h
Method: as §3

[5] = tested on: NCI-H157 (human non-small cell lung cancer cell line); type: cell-based; details: 24 h
Method: as §3

[6] = tested on: PC-3 (human prostate carcinoma cancer cell line); type: cell-based; details: 24 h
Method: as §3

[7] = tested on: U251MG (human neuronal glioblastoma cancer cell line); type: cell-based; details: 24 h
Method: as §3

[8] = tested on: C. albicans (ATCC 10231); type: cell-based, Candida albicans; details: ATCC 10231, 24 h
Method: as §1, §2

[9] = tested on: horse red blood cells; type: cell-based; details: for HC50: red cells of horse
Method: The haemolysis assay was performed by mixing 2% (v/v) fresh defibrinated horse blood (TCS Biosciences Ltd., Buckingham, UK) with peptides in different concentrations. Before the test, horse blood was rinsed with PBS three to four times until the supernatant was clear. Next, peptide solutions (from 100 μM to 1 nM) were incubated with the suspension of red blood cells at 37 °C for two hours. The blood cells treated with 1% Triton-X 100 were used as the positive control, and the blood cells treated with PBS were used as the negative control. After incubation, 100 μL of the supernatant from each sample were transferred to a new 96-well plate, and the OD value of each well was measured with a Synergy HT plate reader (BioTek, Minneapolis, MN, USA) with the absorbance set to 570 nm.

[10] = tested on: K. pneumoniae (ATCC 43816); type: cell-based, Klebsiella pneumoniae; details: ATCC 43816, 24 h
Method: as §1, §2

[11] = tested on: E. coli (ATCC 8739); type: cell-based, Escherichia coli; details: ATCC 8739, 24 h
Method: as §1, §2

[12] = tested on: P. aeruginosa (ATCC 9027); type: cell-based, Pseudomonas aeruginosa; details: ATCC 9027, 24 h
Method: as §1, §2

[13] = tested on: Enterococcus faecalis (E. faecalis) (NCTC 12697); type: cell-based; details: NCTC 12697, 24 h
Method: as §1, §2

[14] = tested on: Methicillin-resistant Staphylococcus aureus (MRSA) (NCTC 12493); type: cell-based; details: NCTC 12493, 24 h
Method: as §1, §2

[15] = tested on: PC-3, H838, H157 and U251MG cancer cell lines; type: cell-based, human; details: 24 h
Method: as §3, with “Then the 96-well plate was incubated at 37 °C with 5% CO2 for 24 h. After, ten microliters of MTT solution (5 mg/mL) (Sigma-Aldrich UK Ltd., Gillingham, UK) were added to each well and incubated in a dark environment for two hours.” left out

MIC [1] [µM]	IC50 [2] [µM]	IC50 against HMEC-1 [3] [µM]	IC50 against HaCaT [4] [µM]	IC50 [5] [µM]	IC50 [6] [µM]	IC50 [7] [µM]	MIC [8] [µM]	HC50 [9] [µM]	MIC [10] [µM]	MIC [11] [µM]	MIC [12] [µM]	MIC [13] [µM]	Structure (SMILES)	MBC [1] [µM]	MBC [8] [µM]	MBC [10] [µM]	MBC [11] [µM]	MBC [12] [µM]	MBC [13] [µM]	MBC [14] [µM]	also measured
4 (≈ 8.49 µg/mL)	186	340.2	151.4	88.3	55.6	594	64 (≈ 136 µg/mL)	834.6	4 (≈ 8.49 µg/mL)	2 (≈ 4.25 µg/mL)	8 (≈ 17 µg/mL)	256 (≈ 543 µg/mL)	CC[C@H](C)[C@H](NC(=O)[C@H](CCCCN)NC(=O)[C@H](CCCCN)NC(=O)[C@H](Cc1c[nH]c2ccccc12)NC(=O)[C@H](CC(C)C)NC(=O)CN)C(=O)N[C@@H](CCCCN)C(=O)N[C@@H](CC(N)=O)C(=O)N[C@H](C(=O)N[C@@H](C)C(=O)N[C@@H](CCCCN)C(=O)N[C@@H](C)C(=O)N[C@@H](C)C(=O)NCC(=O)N[C@@H](CCCCN)C(=O)N[C@@H](C)C(=O)N[C@@H](C)C(=O)N[C@@H](CCCCN)C(=O)NCC(=O)N[C@@H](C)C(=O)N[C@@H](CC(C)C)C(N)=O)C(C)C [t-DPH1-6K] (H-GLWKKIKNVAKAAGKAAKGAL-NH2)	8 (≈ 17 µg/mL)	128 (≈ 272 µg/mL)	8 (≈ 17 µg/mL)	4 (≈ 8.49 µg/mL)	16 (≈ 34 µg/mL)	512 (≈ 1090 µg/mL)	64 (≈ 136 µg/mL)	MIC [14]: 32 µM (≈ 67.9 µg/mL)
2 (≈ 4.1 µg/mL)	10.1	46.02	63.37	6.14	19	32.2	32 (≈ 65.6 µg/mL)	444.8	2 (≈ 4.1 µg/mL)	1 (≈ 2.05 µg/mL)	8 (≈ 16.4 µg/mL)	32 (≈ 65.6 µg/mL)	CC[C@H](C)[C@H](NC(=O)[C@H](CCCCN)NC(=O)[C@H](CCCCN)NC(=O)[C@H](Cc1c[nH]c2ccccc12)NC(=O)[C@H](CC(C)C)NC(=O)CN)C(=O)N[C@@H](CCCCN)C(=O)N[C@@H](CC(N)=O)C(=O)N[C@H](C(=O)N[C@@H](C)C(=O)N[C@@H](C)C(=O)N[C@@H](C)C(=O)N[C@@H](C)C(=O)NCC(=O)N[C@@H](CCCCN)C(=O)N[C@@H](C)C(=O)N[C@@H](C)C(=O)N[C@@H](CC(C)C)C(=O)NCC(=O)N[C@@H](C)C(=O)N[C@@H](CC(C)C)C(N)=O)C(C)C [t-DPH1-K4] (H-GLWKKIKNVAAAAGKAALGAL-NH2)	4 (≈ 8.2 µg/mL)	64 (≈ 131 µg/mL)	4 (≈ 8.2 µg/mL)	2 (≈ 4.1 µg/mL)	16 (≈ 32.8 µg/mL)	32 (≈ 65.6 µg/mL)	4 (≈ 8.2 µg/mL)	MIC [14]: 2 µM (≈ 4.1 µg/mL)
8 (≈ 16.1 µg/mL)	23.5	29.85	175.6	10.2	14.7	34.2	64 (≈ 129 µg/mL)	106.4	8 (≈ 16.1 µg/mL)	2 (≈ 4.02 µg/mL)	16 (≈ 32.2 µg/mL)	128 (≈ 257 µg/mL)	CC[C@H](C)[C@H](NC(=O)[C@H](CCCCN)NC(=O)[C@H](CO)NC(=O)[C@H](Cc1c[nH]c2ccccc12)NC(=O)[C@H](CC(C)C)NC(=O)CN)C(=O)N[C@@H](CCCCN)C(=O)N[C@@H](CC(N)=O)C(=O)N[C@H](C(=O)N[C@@H](C)C(=O)N[C@@H](C)C(=O)N[C@@H](C)C(=O)N[C@@H](C)C(=O)NCC(=O)N[C@@H](CCCCN)C(=O)N[C@@H](C)C(=O)N[C@@H](C)C(=O)N[C@@H](CC(C)C)C(=O)NCC(=O)N[C@@H](C)C(=O)N[C@@H](CC(C)C)C(N)=O)C(C)C [t-DPH1] (H-GLWSKIKNVAAAAGKAALGAL-NH2)	16 (≈ 32.2 µg/mL)	128 (≈ 257 µg/mL)	16 (≈ 32.2 µg/mL)	4 (≈ 8.04 µg/mL)	32 (≈ 64.3 µg/mL)	256 (≈ 514 µg/mL)	32 (≈ 64.3 µg/mL)	IC50 [15]: 10.2 to 34.2 µM; haemolysis ([9]; 100 µM): over 50%; MIC [14]: 16 µM (≈ 32.2 µg/mL)
